The test system of the test is HCT116. The settings on record: 72 h. The essentials:
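For IC50 and maximal efficacy, four-parameter Hill fits were used. Input values were CellTiter-Glo luminescence from HCT116 cells seeded at 250 per well in 1536-well plates, normalized to vehicle (0%) and positive control (-100%). Pattern correction followed normalization.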

Counter-ions that a name gives are not always drawn. Where only a bound is given, the exact number is not on record here.

`CC(C)Cn1cnc2c(N)nc3ccccc3c21` [Imiquimod] yielded an IC50 cell viability (ICRF193 0 nM) above 45.8 µM and an IC50 cell viability (ICRF193 200 nM) above 45.8 µM.

`CC(C)N1CCN(c2ccc(OCC3COC(Cn4cncn4)(c4ccc(Cl)cc4Cl)O3)cc2)CC1` (stereo not drawn) [Terconazole] had an IC50 cell viability (ICRF193 0 nM) above 45.8 µM and an IC50 cell viability (ICRF193 200 nM) above 45.8 µM.

As for `OCCN(CCO)CCO` [Triethanolamine], the IC50 cell viability is above 45.8 µM (ICRF193 0 nM) and above 45.8 µM (ICRF193 200 nM).

`COC(=O)[C@H]1[C@@H](OC(=O)c2ccccc2)C[C@@H]2CC[C@H]1N2C` [(-)-Cocaine hydrochloride]: the IC50 cell viability by setting is: (ICRF193 0 nM) above 45.8 µM; (ICRF193 200 nM) above 45.8 µM.

Take `O=C(N[C@H]1N=C(c2ccccc2F)c2cccc3c2N(CC3)C1=O)c1cc2ccccc2[nH]1` [Pranazepide]: the IC50 cell viability was above 45.8 µM (ICRF193 0 nM) and above 45.8 µM (ICRF193 200 nM).

For the compound `N=C(N)NCCN1CCCCCCC1` [Guanethidine sulfate], the IC50 cell viability by setting is: (ICRF193 0 nM) above 45.8 µM; (ICRF193 200 nM) above 45.8 µM.

The compound `N=C1NC(=O)N2CC12` (stereo not drawn) [IMEXON] showed an IC50 cell viability (ICRF193 0 nM) above 45.8 µM and an IC50 cell viability (ICRF193 200 nM) above 45.8 µM.

For the compound `C#CC1(O)CC[C@H]2[C@@H]3CCC4=CC(=O)CC[C@@H]4[C@H]3CC[C@@]21CC` (stereo partly drawn) [Norgestrel], the IC50 cell viability (ICRF193 0 nM) was above 45.8 µM and the IC50 cell viability (ICRF193 200 nM) was above 45.8 µM.

In the case of `CCC(=O)NC[C@@H]1C[C@H]1c1cccc2c1CCO2` [Tasimelteon], the IC50 cell viability was above 45.8 µM (ICRF193 0 nM) and above 45.8 µM (ICRF193 200 nM).

Regarding `C[C@]12CCC(=O)C=C1CC[C@H]1[C@@H]3CC[C@](O)(C(=O)CO)[C@@]3(C)C[C@H](O)[C@@]12F` [Fludrocortisone], the IC50 cell viability runs as follows: (ICRF193 0 nM) above 45.8 µM; (ICRF193 200 nM) above 45.8 µM.

On to `CC(=O)O[C@@H]1C(=O)O[C@H]2[C@@H]1OC(=O)[C@@H]2OC(C)=O` [Aceglatone], for which the IC50 cell viability is above 45.8 µM (ICRF193 0 nM) and above 45.8 µM (ICRF193 200 nM).

Compound `CC(C)(C)C(=O)OCC(=O)[C@H]1CC[C@H]2[C@@H]3CCC4=CC(=O)CC[C@]4(C)[C@H]3CC[C@]12C` [Desoxycorticosterone Pivalate] displayed an IC50 cell viability (ICRF193 0 nM) above 45.8 µM and an IC50 cell viability (ICRF193 200 nM) above 45.8 µM.

`O[C@H]1[C@H](O)[C@@H](O)[C@H](O)[C@@H](O)[C@H]1O` [myo-Inositol] gave an IC50 cell viability (ICRF193 0 nM) above 45.8 µM and an IC50 cell viability (ICRF193 200 nM) above 45.8 µM.

Regarding `CCCC(=O)O[C@]1(C(=O)CC)CC[C@H]2[C@@H]3CCC4=CC(=O)CC[C@]4(C)[C@H]3[C@@H](O)C[C@@]21C` [Resocortol butyrate], the IC50 cell viability was above 45.8 µM (ICRF193 0 nM) and above 45.8 µM (ICRF193 200 nM).

As for `CCCS(=O)(=O)Nc1ccc(F)c(C(=O)c2c[nH]c3ncc(-c4ccc(Cl)cc4)cc23)c1F` [Vemurafenib], the IC50 cell viability (ICRF193 0 nM) was above 45.8 µM and the IC50 cell viability (ICRF193 200 nM) was above 45.8 µM.

The compound `C=C1[C@H](CO)[C@@H](O)C[C@@H]1n1cnc2c(=O)[nH]c(N)nc21` [Entecavir (monohydrate)] had an IC50 cell viability (ICRF193 0 nM) above 45.8 µM and an IC50 cell viability (ICRF193 200 nM) above 45.8 µM.

For the compound `Nc1nc(-n2cc(C(=O)O)c(=O)c3cc(F)c(N4CC(O)C4)c(Cl)c32)c(F)cc1F` [Delafloxacin (meglumine)], the IC50 cell viability is above 45.8 µM (ICRF193 0 nM) and above 45.8 µM (ICRF193 200 nM).

With `CCCC(=O)OCOC(=O)C1=C(C)NC(C)=C(C(=O)OC)C1c1cccc(Cl)c1Cl` (stereo not drawn) [Clevidipine], the IC50 cell viability (ICRF193 0 nM) was above 45.8 µM and the IC50 cell viability (ICRF193 200 nM) is above 45.8 µM.

Turning to `CO[C@H]1/C=C/O[C@@]2(C)Oc3c(C)c(O)c4c(c3C2=O)C2=NC3(CCN(CC(C)C)CC3)NC2=C(NC(=O)/C(C)=C\C=C\[C@H](C)[C@H](O)[C@@H](C)[C@@H](O)[C@@H](C)[C@H](OC(C)=O)[C@@H]1C)C4=O` [Rifabutin], the IC50 cell viability was above 45.8 µM (ICRF193 0 nM) and above 45.8 µM (ICRF193 200 nM).

Regarding `CCN1CCN(c2cc(-c3ccc(F)cc3)c3c(n2)CCCCCC3)CC1` [Blonanserin], the IC50 cell viability is, setting by setting: (ICRF193 0 nM) above 45.8 µM; (ICRF193 200 nM) above 45.8 µM.

As to `CCCN(CCC)C(=O)C(CCC(=O)O)NC(=O)c1ccccc1` (stereo not drawn) [Proglumide], the IC50 cell viability (ICRF193 0 nM) is above 45.8 µM and the IC50 cell viability (ICRF193 200 nM) was above 45.8 µM.

On to `CC(C)c1cccc(C(C)C)c1O` [Propofol], for which the IC50 cell viability was above 45.8 µM (ICRF193 0 nM) and above 45.8 µM (ICRF193 200 nM).

`O=C(C[S+]([O-])Cc1ccco1)NC/C=C\COc1cc(CN2CCCCC2)ccn1` (stereo not drawn) [Lafutidine] registered an IC50 cell viability (ICRF193 0 nM) above 45.8 µM and an IC50 cell viability (ICRF193 200 nM) above 45.8 µM.

Turning to `CS(=O)(=O)c1ccc(C2=C(c3ccccc3)C(=O)OC2)cc1` [Rofecoxib], the IC50 cell viability was above 45.8 µM (ICRF193 0 nM) and above 45.8 µM (ICRF193 200 nM).

Regarding `CC[C@H](C)[C@H](N)C1=N[C@H](C(=O)N[C@@H](CC(C)C)C(=O)N[C@H](CCC(=O)O)C(=O)N[C@H](C(=O)N[C@H]2CCCCNC(=O)[C@H](CC(N)=O)NC(=O)[C@@H](CC(=O)O)NC(=O)[C@H](Cc3cnc[nH]3)NC(=O)[C@@H](Cc3ccccc3)NC(=O)[C@H]([C@@H](C)CC)NC(=O)[C@@H](CCCN)NC2=O)[C@@H](C)CC)CS1` [Bacitracin], the IC50 cell viability is above 45.8 µM (ICRF193 0 nM) and above 45.8 µM (ICRF193 200 nM).

Consider `COc1ccc2c(c1)C(=O)N(CCc1ccc(S(=O)(=O)NC(=O)NC3CCCCC3)cc1)C(=O)C2(C)C` [Gliquidone], for which the IC50 cell viability (ICRF193 0 nM) is above 45.8 µM and the IC50 cell viability (ICRF193 200 nM) is above 45.8 µM.

Consider `CC[C@H]1[C@@H]2C[C@H]3[C@@H]4N(C)c5ccccc5[C@]45C[C@@H]([C@@H]2[C@H]5O)N3[C@@H]1O` [Ajmaline], for which the IC50 cell viability reads like this: (ICRF193 0 nM) above 45.8 µM; (ICRF193 200 nM) above 45.8 µM.

Turning to `O=C(CCCCCCCCC#CI)Oc1ccccc1` [Phenyl 11-iodo-10-undecynoate], the IC50 cell viability reads like this: (ICRF193 0 nM) above 45.8 µM; (ICRF193 200 nM) above 45.8 µM.

Turning to `CN(C)C(=O)c1cc2cnc(Nc3ccc(N4CCNCC4)cn3)nc2n1C1CCCC1` [Ribociclib (LEE011)], the IC50 cell viability was above 45.8 µM (ICRF193 0 nM) and above 45.8 µM (ICRF193 200 nM).

For `CC1CCCCN1CCCOC(=O)c1ccc(OC2CCCCC2)cc1` (stereo not drawn) [Cyclomethycaine], the IC50 cell viability reads like this: (ICRF193 0 nM) above 45.8 µM; (ICRF193 200 nM) above 45.8 µM.

As to `Cc1c(C(=O)O)c(O)cc2c1C(=O)c1c(O)c(C3OC(CO)C(O)C(O)C3O)c(O)c(O)c1C2=O` (stereo not drawn) [Cochineal], the IC50 cell viability by setting is: (ICRF193 0 nM) above 45.8 µM; (ICRF193 200 nM) above 45.8 µM.

Consider `CC(=O)OCC(CCn1cnc2cnc(N)nc21)COC(C)=O` [Famciclovir], for which the IC50 cell viability by setting is: (ICRF193 0 nM) above 45.8 µM; (ICRF193 200 nM) above 45.8 µM.

Take `C[N+]1([O-])[C@@H]2CC(OC(=O)[C@H](CO)c3ccccc3)C[C@H]1[C@@H]1O[C@@H]12` (single isomer, unassigned; (-)) [(-)-Scopolamine N-oxide]: the IC50 cell viability is, setting by setting: (ICRF193 0 nM) above 45.8 µM; (ICRF193 200 nM) above 45.8 µM.

As to `CCCC[N+]1(C)[C@@H]2C[C@@H](OC(=O)[C@H](CO)c3ccccc3)C[C@H]1[C@@H]1O[C@@H]12` (stereo partly drawn) [Butylscopolamine bromide], the IC50 cell viability is above 45.8 µM (ICRF193 0 nM) and above 45.8 µM (ICRF193 200 nM).

In the case of `CCOc1cc2ncc(C#N)c(Nc3ccc(OCc4ccccn4)c(Cl)c3)c2cc1NC(=O)/C=C/CN(C)C` [Neratinib], the IC50 cell viability is, setting by setting: (ICRF193 0 nM) above 45.8 µM; (ICRF193 200 nM) above 45.8 µM.

`COc1cc(N)cn[n+]1-c1ccccc1` [Amezinium methylsulfate] came in with an IC50 cell viability (ICRF193 0 nM) above 45.8 µM and an IC50 cell viability (ICRF193 200 nM) above 45.8 µM.

For the compound `C[N+]1(C)CCCCC1COC(=O)C(O)(c1ccccc1)c1ccccc1` (stereo not drawn) [Bevonium metilsulfate], the IC50 cell viability by setting is: (ICRF193 0 nM) above 45.8 µM; (ICRF193 200 nM) above 45.8 µM.

As for `CCCc1nn(C)c2c(=O)[nH]c(-c3cc(S(=O)(=O)N4CCN(C)CC4)ccc3OCC)nc12` [Sildenafil citrate], the IC50 cell viability is above 45.8 µM (ICRF193 0 nM) and above 45.8 µM (ICRF193 200 nM).

For `COC(COC(N)=O)C1=C(N2CC2)C(=O)C(C)=C(N2CC2)C1=O` (stereo not drawn) [Carboquone], the IC50 cell viability by setting is: (ICRF193 0 nM) above 45.8 µM; (ICRF193 200 nM) above 45.8 µM.

In the case of `COP(=S)(OC)Oc1cc(Cl)c(Cl)cc1Cl` [Fenchlorphos], the IC50 cell viability reads like this: (ICRF193 0 nM) above 45.8 µM; (ICRF193 200 nM) above 45.8 µM.

With `C(=C\c1ccccc1)/CN1CCN(C(c2ccccc2)c2ccccc2)CC1` [Cinnarizine], the IC50 cell viability is, setting by setting: (ICRF193 0 nM) above 45.8 µM; (ICRF193 200 nM) above 45.8 µM.

Regarding `CNC(C)C(O)c1ccccc1` (stereo not drawn) [RACEPHEDRINE HYDROCHLORIDE], the IC50 cell viability (ICRF193 0 nM) is above 45.8 µM and the IC50 cell viability (ICRF193 200 nM) was above 45.8 µM.

As to `NS(=O)(=O)c1ccc(N2CCCCS2(=O)=O)cc1` [Sulthiame], the IC50 cell viability is, setting by setting: (ICRF193 0 nM) above 45.8 µM; (ICRF193 200 nM) above 45.8 µM.

For the compound `Cc1ccsc1C(=CCCN1CCC[C@@H](C(=O)O)C1)c1sccc1C` [Tiagabine hydrochloride], the IC50 cell viability reads like this: (ICRF193 0 nM) above 45.8 µM; (ICRF193 200 nM) above 45.8 µM.

In the case of `CN[C@@H]1[C@@H](O[C@H]2O[C@H](CO)[C@@H](N)[C@H](O)[C@H]2O)OC2C[C@@H](N)[C@@H](O[C@H]3[C@H](O)[C@@H](O)[C@H](N)C[C@@H]3N)OC2[C@@H]1O` (stereo partly drawn) [APRAMYCIN SULFATE], the IC50 cell viability is above 45.8 µM (ICRF193 0 nM) and above 45.8 µM (ICRF193 200 nM).

For the compound `COc1ccc2c3c1O[C@H]1C[C@@H](O)C=C[C@@]31CCN(C)C2` [Galanthamine], the IC50 cell viability runs as follows: (ICRF193 0 nM) above 45.8 µM; (ICRF193 200 nM) above 45.8 µM.

`C=CC[C@]1(O)CC[C@H]2[C@@H]3CCC4=CCCC[C@@H]4[C@H]3CC[C@@]21C` [Allylestrenol]: the IC50 cell viability reads like this: (ICRF193 0 nM) above 45.8 µM; (ICRF193 200 nM) above 45.8 µM.

On to `CC1=C(/C=C/C(C)=C/C=C/C(C)=C/C(=O)Oc2c(C)c(C)c3c(c2C)CCC(C)(CCCC(C)CCCC(C)CCCC(C)C)O3)C(C)(C)CCC1` (stereo not drawn) [Tocoretinate], for which the IC50 cell viability (ICRF193 0 nM) was above 45.8 µM and the IC50 cell viability (ICRF193 200 nM) was above 45.8 µM.

Consider `CO[C@H]1/C=C/O[C@@]2(C)Oc3c(C)c(O)c4c(O)c(c(/C=N/N5CCN(C6CCCC6)CC5)c(O)c4c3C2=O)NC(=O)/C(C)=C\C=C\[C@H](C)[C@H](O)[C@@H](C)[C@@H](O)[C@@H](C)[C@H](OC(C)=O)[C@@H]1C` [Rifapentine], for which the IC50 cell viability is above 45.8 µM (ICRF193 0 nM) and above 45.8 µM (ICRF193 200 nM).

These data come from the supplement of paper PMC12137928.
